From the CheMixHub ionic liquid set

Assay: xn = mol fraction of the nth substance listed
Details: 298.15 K, 101 kPa

O=P([O-])([O-])[O-].[Na+].[Na+].[Na+] + CCCCCCCCCCCC[N+](C)(C)C.[Br-] + O
Details | electrical conductivity [S/m]
x2 = 0, x1 = 0.0001802 | 0.411
x2 = 0, x1 = 0.001799 | 2.052
x2 = 5.23e-06, x1 = 0.0001802 | 0.411
x2 = 7.86e-06, x1 = 0.001799 | 2.048
x2 = 1.209e-05, x1 = 0.0001802 | 0.4123
x2 = 1.591e-05, x1 = 0.001799 | 2.047
x2 = 1.895e-05, x1 = 0.0001802 | 0.4139
x2 = 2.633e-05, x1 = 0.001799 | 2.047
x2 = 2.887e-05, x1 = 0.0001802 | 0.4171
x2 = 3.573e-05, x1 = 0.0001802 | 0.4194
x2 = 3.912e-05, x1 = 0.001799 | 2.048
x2 = 4.223e-05, x1 = 0.0001802 | 0.4213
x2 = 4.89e-05, x1 = 0.0001802 | 0.4235
x2 = 5.21e-05, x1 = 0.001799 | 2.049
x2 = 5.756e-05, x1 = 0.0001802 | 0.4261
x2 = 6.605e-05, x1 = 0.0001802 | 0.429
x2 = 6.673e-05, x1 = 0.001799 | 2.051
x2 = 7.416e-05, x1 = 0.0001801 | 0.4318
x2 = 8.172e-05, x1 = 0.001799 | 2.054
x2 = 8.246e-05, x1 = 0.0001801 | 0.4346
x2 = 9.058e-05, x1 = 0.0001801 | 0.4375
x2 = 9.852e-05, x1 = 0.0001801 | 0.4405
x2 = 9.872e-05, x1 = 0.001799 | 2.059
x2 = 0.000107, x1 = 0.0001801 | 0.444
x2 = 0.0001133, x1 = 0.001799 | 2.063
x2 = 0.0001155, x1 = 0.0001801 | 0.4477
x2 = 0.0001247, x1 = 0.0001801 | 0.4515
x2 = 0.0001301, x1 = 0.001799 | 2.067
x2 = 0.0001324, x1 = 0.0001801 | 0.4544
x2 = 0.0001404, x1 = 0.0001801 | 0.4573
x2 = 0.000147, x1 = 0.001798 | 2.07
x2 = 0.000148, x1 = 0.0001801 | 0.4602
x2 = 0.0001566, x1 = 0.0001801 | 0.4633
x2 = 0.0001632, x1 = 0.001798 | 2.074
x2 = 0.0001658, x1 = 0.0001801 | 0.4669
x2 = 0.000175, x1 = 0.0001801 | 0.4702
x2 = 0.0001791, x1 = 0.001798 | 2.078
x2 = 0.0001842, x1 = 0.0001801 | 0.4735
x2 = 0.0001934, x1 = 0.0001801 | 0.4766
x2 = 0.0001954, x1 = 0.001798 | 2.081
x2 = 0.0002026, x1 = 0.0001801 | 0.4791
x2 = 0.0002111, x1 = 0.001798 | 2.083
x2 = 0.0002116, x1 = 0.0001801 | 0.481
x2 = 0.0002205, x1 = 0.0001801 | 0.4824
x2 = 0.0002268, x1 = 0.001798 | 2.086
x2 = 0.0002327, x1 = 0.0001801 | 0.4842
x2 = 0.0002427, x1 = 0.001798 | 2.089
x2 = 0.0002436, x1 = 0.0001801 | 0.4857
x2 = 0.0002524, x1 = 0.0001801 | 0.4866
x2 = 0.0002579, x1 = 0.001798 | 2.091
x2 = 0.0002612, x1 = 0.0001801 | 0.4876
x2 = 0.0002726, x1 = 0.0001801 | 0.489
x2 = 0.0002731, x1 = 0.001798 | 2.094
x2 = 0.0002851, x1 = 0.0001801 | 0.4902
x2 = 0.0002866, x1 = 0.001798 | 2.096
x2 = 0.0002984, x1 = 0.0001801 | 0.4919
x2 = 0.0003017, x1 = 0.001798 | 2.099
x2 = 0.0003094, x1 = 0.0001801 | 0.4931
x2 = 0.0003171, x1 = 0.001798 | 2.101
x2 = 0.0003315, x1 = 0.001798 | 2.103
x2 = 0.0003393, x1 = 0.0001801 | 0.4959
x2 = 0.0003465, x1 = 0.001798 | 2.105
x2 = 0.0003608, x1 = 0.001798 | 2.108
x2 = 0.0003754, x1 = 0.001798 | 2.11
x2 = 0.0003895, x1 = 0.001798 | 2.112
x2 = 0.000403, x1 = 0.001798 | 2.114
x2 = 0.0004205, x1 = 0.001798 | 2.117
